Experimental data from ChEMBL document CHEMBL3580621, “The Hippo Pathway and YAP/TAZ-TEAD Protein-Protein Interaction as Targets for Regenerative Medicine and Cancer Treatment” (J Med Chem, 2015).

Species: Homo sapiens
Experiment: Inhibition of HA-tagged YAP/Gal4-tagged TEAD (unknown origin) interaction at 2.5 uM by Coimmunoprecipitation assay

VERTEPORFIN was tested, and the inhibition was > 50%.
